Results on ten compounds are retold here after publication PMC8839746, “Discovery and Characterization of a Cryptic Secondary Binding Site in the Molecular Chaperone HSP70” (Molecules, 2022).

In data set [1] the target is HSP70. Set-up: method as in PMID 19256508. The following applies: cited from earlier work.
Data set [2] has as its target T1, HSC70-NBD (Homo sapiens, UniProt P11142).
T1 construct: made in house
Kind of data set: SPR binding to wild-type HSC70-NBD. The protocol:
(§1) The HSC70-NBD variants used in SPR were produced and purified as previously described. All surface plasmon resonance (SPR) experiments were carried out on a Biacore T100 enhanced to T200 sensitivity (GE Life Sciences, Amersham, UK), and amine coupling chemistry was used to immobilize the proteins on a research grade CM5 sensor chip. The running buffer was phosphate-buffered saline (10-mM NaHPO4-NaH2PO4, pH 7.4, 2.7-mM KCl and 137-mM NaCl), and the chip’s surface was activated for 10 min using a 1:1 mixture of 100-mM N-hydroxysuccinimide and 400-mM 1-ethyl-3-(3-dimethylaminopropyl)-carbodiimide. Wild-type HSC70-NBD and the S275W mutant proteins were injected for 10 min at a concentration of 2 μM in a 10-mM sodium acetate buffer, pH 5.0 with 100-μM ADP as protection for the active site lysines. Finally, the surface was blocked via an injection of 1 M ethanolamine, pH 8.5 for 7 min. The flow rate was maintained at 10 μL/min for all the above procedures. On average, ~12,000 response units (RU) of the wild-type and the mutant proteins were immobilized on the chip. Flow cell one was left unmodified as the reference surface. Following protein immobilization, the running buffer was changed to phosphate-buffered saline containing 0.05% Tween20 (v/v) and 5% DMSO.
(§2) To determine binding constants (KD) for the compounds, all liquid handling was carried out using an ECHO 550 acoustic liquid dispenser (Labcyte, Dublin, Ireland), and compounds were added to 384-well polypropylene V-bottomed plates (Greiner, Stonehouse, UK), which were used as sample plates for the SPR experiments. Fresh 100-mM DMSO stocks of each compound were prepared and used to generate eight-point concentration responses ranging from 25 μM to 1000 μM or from 6.25 μM to 500 μM. For adenosine, the concentration range was 50 μM–2000 μM from a 200-mM stock in DMSO, and for VER155008, a stock solution of 0.25 mM in DMSO was prepared with a concentration range of 0.0625–2.5 μM. The buffer mix was made compatible with the Biacore running buffer, and the experiments were performed at a flow rate of 30 μL/min, a sample injection time of 60 s and a dissociation time of 200 s. The CM5 surface was not regenerated between sample injections. Binding constants (KD) were calculated from the DMSO-corrected and background-normalized binding curves generated from the sensorgrams under equilibrium conditions using the 1:1 binding model in Biacore software version 2 (GE Life Sciences, Amersham, UK).

Data set [3] can be described thus: Kinetic solubility in pH 7.4 phosphate buffer by quantitative NMR. As to conditions: phosphate-buffered saline with 5% DMSO, aqueous with cosolvent or surfactant or cyclodextrin, kinetic from dmso stock, NMR method. It counts as physicochemical. How it is done:
Nine microliters of a 10-mM DMSO solution of 1 was pipetted into one well of a 384-deep well plate (Greiner, part-no. 781270). one hundred and seventy-one microliters of aqueous buffer (137-mM NaCl, 2.7-mM KCl and 10-mM phosphate buffer solution (pH 7.4)) were pipetted into the same well and mixed 3 times by pipette to give a 500-µM solution of 1 with 5% DMSO. The plate was centrifuged (1000 rpm for 1 min, Eppendorf 5810C) and then sealed and incubated at room temperature for 20 h without shaking. The plate was centrifuged (1000 rpm for 1 min, Eppendorf 5810R), and 165 µL of the supernatant was transferred to a 3-mm NMR tube (Bruker, Part No. Z112272) using a liquid handler SamplePro Tube SJ S (Bruker, Bilerica, MA, USA)). The concentration of 1 was measured by quantitative ^1H-NMR using a single external standard (200-µM caffeine (Sigma C1778, Merck Life Science UK, Gillingham, UK)) in PBS (pH 7.4) with 1% DMSO-d6). NMR data was collected on a Bruker Avance Neo 600 spectrometer equipped with a 5-mm TCI Cryo-probe. The ^1H spectrum was referenced to the internal deuterated solvent. The operating frequency for ^1H was 600 MHz. […] The quantitative ^1H-NMR spectrum was acquired using a Bruker standard 1D lc1pngppsf2 pulse sequence with 32 scans. […] The quantitative 1H-NMR data analysis was carried out in Mnova 14.1 (Mestrelab Research SL, Santiago de Compostela, Spain).

For data set [4], the system named is T2, HSP72-NBD.
T2 construct: GST (glutathione-S-transferase), PreScission site (N, cleaved yes); made in house; host or cells: BL21-AI E. coli
Nature of the data set: waterLOGSY ligand-observed NMR binding. As to conditions: ligand 200 μM, HSP72-NBD 10 μM. The arrangement: species or system human. How it is done:
(§3) To confirm the binding of compounds to HSP72-NBD, a series of CPMG and WaterLOGSY experiments were performed. Compounds were assayed at 200 μM in the presence or absence of 10-μM HSP72-NBD. […] of ATP were also included in the competition experiments. The total assay volume was 200 μL, and the experiments were performed in 3-mm NMR tubes. The buffer was 25-mM Tris, pH 7.5, 50-mM NaCl, 10% D2O and 100 μM of DTT in deionized water. NMR experiments were conducted at a ^1H frequency of 600 MHz using a Bruker Avance 600 spectrometer (Bruker, Bilerica, MA, USA) equipped with a 5-mm TCI Cryo-probe. All data were acquired and processed using Topspin (Bruker, Bilerica, MA, USA) and MNova (Mestrelab Research SL, Santiago de Compostela, Spain). The relaxation-edited 1H-NMR spectrum was acquired at 298 K using the CPMG sequence with a spin-lock time of 600 ms. The water signal was suppressed using pre-saturation during the relaxation delay (2 s) and by using the Watergate sequence subsequent to the CPMG sequence. For each spectrum, 64 transients were acquired.

For data set [5], the system named is T2, HSP72-NBD. Kind of data set: CPMG relaxation-edited ligand-observed 1H NMR binding and ATP competition. Set-up: species or system human. How it is done:
as §3

Data set [6] can be described thus: Aggregation check in LO-NMR experiments. As to conditions: tested concentration 200 µM. The format is physicochemical. The protocol:
as §3

For data set [7], the target named is T3, S275W HSC70-NBD (Homo sapiens, UniProt P11142, S275W).
T3 construct: made in house
T3 sequence (P11142 2-386 S275W limits assumed): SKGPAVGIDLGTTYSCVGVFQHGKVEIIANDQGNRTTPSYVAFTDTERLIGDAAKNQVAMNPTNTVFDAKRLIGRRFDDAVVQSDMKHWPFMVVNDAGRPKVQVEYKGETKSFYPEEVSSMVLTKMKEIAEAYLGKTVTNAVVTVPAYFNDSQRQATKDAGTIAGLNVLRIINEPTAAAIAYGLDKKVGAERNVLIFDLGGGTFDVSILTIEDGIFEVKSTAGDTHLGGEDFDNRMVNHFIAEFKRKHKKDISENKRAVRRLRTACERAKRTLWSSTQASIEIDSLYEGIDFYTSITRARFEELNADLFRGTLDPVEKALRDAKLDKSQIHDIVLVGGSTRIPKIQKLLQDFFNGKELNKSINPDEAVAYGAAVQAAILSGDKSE
Nature of the data set: SPR binding to S275W mutant HSC70-NBD. The protocol: as §1, §2
A general note: In SPR one partner is held on a chip, and binding of the other changes the refractive index at the surface.

Data set [8] deals with T3, S275W HSC70-NBD. The arrangement: method as in PMID 27708405. As to conditions: S275W mutation; cited from earlier work.
Where [9] appears, read: mean (±SD), n = 3 unless marked n = 2, read-out: HSC70-NBD SPR KD.
[10] abbreviates: n = 2 determinations unless marked single, read-out: HSC70-NBD S275W SPR KD.

Values after ≈ are worked out from the molar mass of the structure shown. Read-outs that look alike come from different tables or passages of the source.

T1 sequence (P11142 2-386 limits assumed): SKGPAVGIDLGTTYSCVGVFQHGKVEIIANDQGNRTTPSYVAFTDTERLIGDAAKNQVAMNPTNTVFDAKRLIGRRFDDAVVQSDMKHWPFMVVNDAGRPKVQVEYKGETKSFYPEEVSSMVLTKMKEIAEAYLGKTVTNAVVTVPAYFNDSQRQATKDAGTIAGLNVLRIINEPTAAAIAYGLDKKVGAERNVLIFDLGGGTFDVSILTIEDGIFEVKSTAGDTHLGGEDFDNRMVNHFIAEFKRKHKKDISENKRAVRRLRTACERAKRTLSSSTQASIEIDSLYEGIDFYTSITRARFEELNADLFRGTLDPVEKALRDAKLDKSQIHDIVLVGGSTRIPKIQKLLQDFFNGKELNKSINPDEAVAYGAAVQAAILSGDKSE

Usually Kd stands for the equilibrium constant for the complex coming apart. `Nc1ncnc2c1ncn2[C@@H]1O[C@H](COP(=O)(O)OP(=O)(O)O)[C@@H](O)[C@H]1O` [ADP]: in data set [1], the Kd is 0.5 µM.

As a reminder, the kinetic solubility is the concentration staying in solution when a stock, usually in DMSO, is diluted into the medium. The term melting point denotes the temperature, or range, at which the solid turns liquid. Take `NC(=O)N1CCN(c2nc(-c3ccccc3)cs2)CC1` [Compound 1, 4-(4-Phenylthiazol-2-yl)piperazine-1-carboxamide]: the melting point is 131 °C (dec.). For the same compound, the “SPR binding behaviour (Langmuir isotherm)” value in [2] (concentration-response SPR, HSC70-NBD) is reported as “non-saturating behavior”. This compound also registered a kinetic solubility at 20 h in data set [3] of 291 µM (≈ 83.9 µg/mL). Moreover, the “waterLOGSY NOE sign inversion on addition of HSP72-NBD” value in [4] is on record as “binding to the protein”. The “Reduction in 1H NMR peak intensity relative to 1 alone, Peak a” value in data set [5] (1 (200 μM) + HSP72-NBD (10 μM), thiazole C5 proton) is given as 58%. In addition, in [5] (1 + HSP72-NBD), the “Reduction in 1H NMR peak intensity relative to 1 alone, Peak b” value is recorded as 7%; the “Reduction in 1H NMR peak intensity relative to 1 alone, Peak c” value was 14%; the “Reduction in 1H NMR peak intensity relative to 1 alone, Peak d” value is reported as 13%. Moreover, in data set [5] (1 + HSP72-NBD + ATP), the “Reduction in 1H NMR peak intensity relative to 1 alone, Peak a” value amounted to 8%; the “Reduction in 1H NMR peak intensity relative to 1 alone, Peak b” value was determined as 12%; the “Reduction in 1H NMR peak intensity relative to 1 alone, Peak c” value is 2%; the “Reduction in 1H NMR peak intensity relative to 1 alone, Peak d” value is reported as 2%. In addition, in data set [6], the “Aggregation in LO-NMR experiments” value is listed as “did not show aggregation”.

Take `NC(=O)N1CCN(c2nc(-c3ccc(C#CCN4CCOCC4)cc3)cs2)CC1` [Compound 3, 4-[4-[4-(3-Morpholinoprop-1-ynyl)phenyl]thiazol-2-yl]piperazine-1-carboxamide]: the Kd in data set [2] (SPR, WT HSC70-NBD, single determination, read-out: KD HSC70-NBD) is 388 µM; in data set [7] (SPR, single determination, read-out: KD S275W HSC70) it was 352 µM. The Ligand Efficiency in [2] (calculated for binding to WT HSC70-NBD) is 0.16 kcal/mol per heavy atom. For the same compound, the figures for the “Change in NMR signal intensity for 3, Peak a” value in [5] (3 + HSP72-NBD) and in [5] (3 + HSP72-NBD + ATP) were 41% and 5%, respectively. In addition, the “Change in NMR signal intensity for 3, Peak b” value is 36% in data set [5] (3 + HSP72-NBD) and 22% in data set [5] (3 + HSP72-NBD + ATP). In addition, the results for the “Change in NMR signal intensity for 3, Peak c” value in [5] (3 + HSP72-NBD) and in data set [5] (3 + HSP72-NBD + ATP) were 31% and 7%, respectively.

On to `CC(C)c1csc(CCNC(=O)c2cccc(-c3cncc(O)n3)c2)n1` [Compound 4], for which the Kd in data set [2] (setting [9]) came out at 406 µM; in data set [7] (setting [10]) it was 385 µM. Also, the Ligand Efficiency in data set [2] (vHTS hits, HSC70-NBD) was determined as 0.18 kcal/mol per heavy atom.

`CC(C)(O)C#Cc1cccc(C(=O)NCc2ccc(-n3cncn3)cc2)c1` [Compound 5]: the values for the Kd in data set [2] (setting [9]) and in [7] (setting [10]) were 295 µM and 176 µM, respectively. Besides, the Ligand Efficiency in data set [2] (vHTS hits, HSC70-NBD) was 0.19 kcal/mol per heavy atom.

Turning to `c1ccc(-c2ccc(Cn3nnnc3N3CCCC(c4ncc[nH]4)C3)cc2)cc1` (stereo not shown) [Compound 6], the Kd was 13 µM in data set [2] (setting [9]) and 12 µM in [7] (setting [10]). Moreover, in data set [2] (vHTS hits, HSC70-NBD), the Ligand Efficiency is 0.24 kcal/mol per heavy atom.

Consider `CNc1nc(C)cc(-c2cccc(C(=O)NCCc3ccc(C)o3)c2)n1` [Compound 7], for which the results for the Kd in data set [2] (setting [9]) and in data set [7] (setting [10]) were 134 µM and 159 µM, respectively. In data set [2] (vHTS hits, HSC70-NBD), this compound displayed a Ligand Efficiency of 0.21 kcal/mol per heavy atom.

As for `COc1cccc(-c2cc(CNC(=O)c3c(C)oc4c3C(=O)CCC4)on2)c1` [Compound 8], the Kd was 99 µM in [2] (setting [9]) and 86 µM in data set [7] (setting [10]). Moreover, the Ligand Efficiency in [2] (vHTS hits, HSC70-NBD) turned out to be 0.2 kcal/mol per heavy atom.

As to `N#Cc1ccc(COC[C@H]2O[C@@H](n3c(NCc4ccc(Cl)c(Cl)c4)nc4c(N)ncnc43)[C@H](O)[C@@H]2O)cc1` [VER-155008], the Kd in [1] is 0.5 µM.

For the compound `Nc1ncnc2c1ncn2[C@@H]1O[C@H](CO)[C@@H](O)[C@H]1O` [adenosine], the “Binding of adenosine to S275W mutant by SPR” value in [8] was “abolished”.
